Data set [1] in a line: Heating of strontium malonate sesquihydrate to remove bound crystal water. Type of data set: physicochemical. The protocol:
The crystal water was irreversibly detached from the malonate at temperatures above approx. 70° C. Thus, anhydrous strontium malonate was produced in high yield and high purity by boiling a solution of strontium malonate.

The next data set deals with new vertebral fracture. The conditions noted are these: cited from earlier work.

Take `O.O.O.O=C([O-])CC(=O)[O-].O=C([O-])CC(=O)[O-].[Sr+2].[Sr+2]` [strontium malonate sesquihydrate]: the “temperature above which crystal water is irreversibly detached” value in data set [1] was over 70 °C.
Turning to `N#Cc1c(N(CC(=O)[O-])CC(=O)[O-])sc(C(=O)[O-])c1CC(=O)[O-].[Sr+2].[Sr+2]` [strontium ranelate], the “RR of new vertebral fracture vs placebo” value with new vertebral fracture (95% CI=0.48-0.73, P<0.001) is recorded as 0.59. Also, the “serum cross-linked C terminal telopeptides of type I collagen (CTX, marker of bone resorption)” value with new vertebral fracture (clinical studies, serum) was “decreased”. Also, the “bone formation marker BSAP” value with new vertebral fracture (clinical studies) is “increased”. For the same compound, the “patients who sustained a new vertebral fracture” value with new vertebral fracture (strontium treated group, vs 222 in the placebo group, more than 7000 individuals) is 139 patients.

Values taken from patent publication US20090137678A1, “HIGH YIELD SYNTHESIS METHODS FOR PRODUCING ORGANIC SALTS OF STRONTIUM” (priority 2005, published 2009).
